Active and inactive are the calls of the source. The rule behind the calls is not given here.
Key:
Rattus norvegicus [1] = assay: Protective activity in Sprague-Dawley rat model of middle cerebral artery occlusion-induced ischemia-reperfusion injury assessed as increase in GSH level at 5 mg/kg, iv measured after 24 hrs of post reperfusion […]; assay type: functional, organism-based
HT-1080 [2] = assay: Inhibition of rotenone-induced oxidative cell death in human HT-1080 cells at 10 uM incubated for 24 hrs; assay type: functional, cell-based
[3] = target: 5-hydroxytryptamine receptor 2A (Homo sapiens) (UniProt P28223); assay: Antagonist activity at HTR2A (unknown origin) by FLIPR assay
Sequence of 5-hydroxytryptamine receptor 2A (Homo sapiens) (P28223 whole entry, the tested form may be a part): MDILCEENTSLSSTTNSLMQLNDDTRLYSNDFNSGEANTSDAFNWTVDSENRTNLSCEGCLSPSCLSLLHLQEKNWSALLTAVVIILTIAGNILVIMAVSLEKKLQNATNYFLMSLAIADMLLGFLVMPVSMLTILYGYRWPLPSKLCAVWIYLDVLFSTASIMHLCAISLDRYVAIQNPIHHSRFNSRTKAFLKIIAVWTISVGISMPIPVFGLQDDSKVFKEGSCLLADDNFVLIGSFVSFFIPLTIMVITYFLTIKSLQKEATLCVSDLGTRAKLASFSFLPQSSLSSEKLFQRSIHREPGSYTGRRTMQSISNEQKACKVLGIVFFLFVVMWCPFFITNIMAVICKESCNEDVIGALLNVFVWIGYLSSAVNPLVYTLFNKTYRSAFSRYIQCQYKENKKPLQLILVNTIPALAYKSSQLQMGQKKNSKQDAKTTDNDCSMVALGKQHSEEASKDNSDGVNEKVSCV

Rattus norvegicus [4] = assay: Protective activity in Sprague-Dawley rat model of middle cerebral artery occlusion-induced ischemia-reperfusion injury assessed as reduction in MDA level at 5 mg/kg, iv measured after 24 hrs of post reperfusion […]; assay type: functional, organism-based
[5] = target: Muscarinic acetylcholine receptor M3 (Homo sapiens) (UniProt P20309); assay: Antagonist activity at CHRM3 (unknown origin) by FLIPR assay
Sequence of Muscarinic acetylcholine receptor M3 (Homo sapiens) (P20309 whole entry, looked up): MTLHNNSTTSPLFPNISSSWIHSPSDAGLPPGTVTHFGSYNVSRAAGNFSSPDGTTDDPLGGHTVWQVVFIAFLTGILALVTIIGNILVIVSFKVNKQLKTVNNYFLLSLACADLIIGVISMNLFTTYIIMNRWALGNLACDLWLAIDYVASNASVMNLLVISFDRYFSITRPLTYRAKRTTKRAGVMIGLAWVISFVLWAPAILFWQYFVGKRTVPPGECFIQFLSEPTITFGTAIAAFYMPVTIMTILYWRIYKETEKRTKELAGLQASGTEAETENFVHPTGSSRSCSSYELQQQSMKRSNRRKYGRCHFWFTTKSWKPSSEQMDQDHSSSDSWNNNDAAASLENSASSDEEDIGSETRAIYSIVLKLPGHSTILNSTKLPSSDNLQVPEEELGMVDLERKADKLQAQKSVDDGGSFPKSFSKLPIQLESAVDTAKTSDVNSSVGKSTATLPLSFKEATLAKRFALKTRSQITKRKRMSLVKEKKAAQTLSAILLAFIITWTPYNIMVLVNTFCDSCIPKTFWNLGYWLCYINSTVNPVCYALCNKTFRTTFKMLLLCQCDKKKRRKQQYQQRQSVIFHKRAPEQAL

[6] = target: Histamine H1 receptor (Homo sapiens) (UniProt P35367); assay: Antagonist activity at H1 (unknown origin) by FLIPR assay
Sequence of Histamine H1 receptor (Homo sapiens) (P35367 whole entry, the tested form may be a part): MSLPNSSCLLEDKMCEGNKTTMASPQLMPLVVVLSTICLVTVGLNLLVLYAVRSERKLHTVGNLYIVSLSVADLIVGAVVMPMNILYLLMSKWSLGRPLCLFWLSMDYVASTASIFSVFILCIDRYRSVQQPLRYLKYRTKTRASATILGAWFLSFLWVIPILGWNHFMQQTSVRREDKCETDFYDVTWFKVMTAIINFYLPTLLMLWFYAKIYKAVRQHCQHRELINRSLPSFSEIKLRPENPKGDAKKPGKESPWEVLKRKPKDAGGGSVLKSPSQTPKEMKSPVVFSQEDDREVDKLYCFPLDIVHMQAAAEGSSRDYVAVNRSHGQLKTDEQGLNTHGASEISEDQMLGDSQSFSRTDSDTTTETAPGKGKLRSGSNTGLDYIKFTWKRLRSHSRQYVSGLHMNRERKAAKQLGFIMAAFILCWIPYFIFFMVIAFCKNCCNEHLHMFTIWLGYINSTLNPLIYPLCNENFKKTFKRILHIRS

Rattus norvegicus [7] = assay: Protective activity in Sprague-Dawley rat model of middle cerebral artery occlusion-induced ischemia-reperfusion injury assessed as prevention of reperfusion injury at 5 mg/kg, iv measured after 24 hrs of post reperfusion by TTC staining based assay; assay type: functional, organism-based
HT-1080 [8] = assay: Downregulation of GPX4 expression in erastin-induced human HT-1080 cell ferroptosis model at 0.01 to 1 uM after 10 hrs by Western blot analysis; assay type: functional; settings: dose 0.01-1 µM
Calu-1 [9] = assay: Antioxidant activity in erastin-induced human Calu-1 cell ferroptosis model assessed as decrease in cytosolic ROS accumulation at 0.01 to 1 uM incubated for 8 to 24 hrs by DCFH-DA staining based assay; assay type: functional; settings: dose 0.01-1 µM, time 8-24 hrs
HT-1080 [10] = assay: Increase in GSH level in erastin-induced human HT-1080 cell ferroptosis model at 0.01 to 1 uM; assay type: functional; settings: dose 0.01-1 µM
[11] = target: Indoleamine 2,3-dioxygenase 1 (Homo sapiens, UniProt P14902); assay: Inhibition of IDO1 (unknown origin)
Sequence of Indoleamine 2,3-dioxygenase 1 (P14902 whole entry): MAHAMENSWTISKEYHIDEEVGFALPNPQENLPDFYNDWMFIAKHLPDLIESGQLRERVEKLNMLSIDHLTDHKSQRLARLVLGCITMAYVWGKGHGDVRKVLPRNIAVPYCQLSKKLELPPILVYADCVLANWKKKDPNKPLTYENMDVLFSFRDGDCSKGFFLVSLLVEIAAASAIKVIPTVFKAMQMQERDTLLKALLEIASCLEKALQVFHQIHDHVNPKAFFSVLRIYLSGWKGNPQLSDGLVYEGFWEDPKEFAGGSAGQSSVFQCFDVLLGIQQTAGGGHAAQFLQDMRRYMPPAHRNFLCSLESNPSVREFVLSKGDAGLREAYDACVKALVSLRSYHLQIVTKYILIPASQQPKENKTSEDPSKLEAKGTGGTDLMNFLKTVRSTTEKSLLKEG

HT-1080 [12] = assay: Inhibition of xCT expression in erastin-induced human HT-1080 cell ferroptosis model at 0.01 to 1 uM after 10 hrs by Western blot analysis; assay type: functional; settings: dose 0.01-1 µM
HT-1080 [13] = assay: Inhibition of H2O2-induced oxidative cell death in human HT-1080 cells at 10 uM incubated for 24 hrs; assay type: functional, cell-based
Calu-1 [14] = assay: Inhibition of erastin-induced ferroptosis in human Calu-1 cells assessed as cell viability incubated for 48 hrs by MTT assay; assay type: functional, cell-based; settings: Calu-1, 48 h
[15] = target: T1, 5-hydroxytryptamine receptor 2C (Homo sapiens) (UniProt P28335); assay: Antagonist activity at HTR2C (unknown origin) by FLIPR assay
T1 sequence (whole entry): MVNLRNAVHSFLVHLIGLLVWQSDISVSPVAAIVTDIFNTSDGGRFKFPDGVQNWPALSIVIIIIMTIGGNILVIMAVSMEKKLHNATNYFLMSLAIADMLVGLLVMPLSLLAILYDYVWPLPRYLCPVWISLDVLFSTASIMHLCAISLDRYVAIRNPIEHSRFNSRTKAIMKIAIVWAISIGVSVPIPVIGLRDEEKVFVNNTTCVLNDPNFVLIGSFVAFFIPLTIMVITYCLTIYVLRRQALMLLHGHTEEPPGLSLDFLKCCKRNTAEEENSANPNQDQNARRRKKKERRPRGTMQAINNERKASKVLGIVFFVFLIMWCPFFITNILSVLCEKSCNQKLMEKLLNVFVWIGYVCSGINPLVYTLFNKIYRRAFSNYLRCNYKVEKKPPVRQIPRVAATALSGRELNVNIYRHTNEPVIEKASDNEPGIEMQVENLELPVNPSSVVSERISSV

HT-1080 [16] = assay: Reduction in lipid oxidation level in erastin-induced human HT-1080 cell ferroptosis model assessed as decrease in MDA accumulation at 0.01 to 1 uM; assay type: functional; settings: dose 0.01-1 µM
Calu-1 [17] = assay: Antioxidant activity in erastin-induced human Calu-1 cell ferroptosis model assessed as decrease in lipid ROS accumulation at 0.01 to 1 uM incubated for 8 to 24 hrs by BODIPY 581/591 C11 staining based flow cytometric analysis; assay type: functional; settings: dose 0.01-1 µM, time 8-24 hrs
MDA-MB-231 = assay: Inhibition of erastin-induced ferroptosis in human MDA-MB-231 cells assessed as cell viability incubated for 48 hrs by MTT assay; assay type: functional, cell-based; settings: MDA-MB-231, 48 h
HT-1080 [18] = assay: Inhibition of erastin-induced ferroptosis in human HT-1080 cells assessed as cell viability incubated for 48 hrs by MTT assay; assay type: functional, cell-based; settings: HT-1080, 48 h
Rattus norvegicus [19] = assay: Protective activity in Sprague-Dawley rat model of middle cerebral artery occlusion-induced ischemia-reperfusion injury assessed as decrease in cerebral infarction volume at 5 mg/kg, iv measured after 24 hrs of post reperfusion by TTC staining based assay; assay type: functional, organism-based
BXPC-3 = assay: Inhibition of erastin-induced ferroptosis in human BXPC-3 cells assessed as cell viability incubated for 48 hrs by MTT assay; assay type: functional, cell-based; settings: BXPC-3, 48 h
HT-1080 [20] = assay: Inhibition of staurosporine-induced apoptotic cell death in human HT-1080 cells assessed as cell viability at 10 uM; assay type: functional, cell-based
HT-1080 [21] = assay: Inhibition of LOX expression in erastin-induced human HT-1080 cell ferroptosis model at 0.01 to 1 uM after 10 hrs by Western blot analysis; assay type: functional; settings: dose 0.01-1 µM
HT-1080 [22] = assay: Antioxidant activity in erastin-induced human HT-1080 cell ferroptosis model assessed as decrease in lipid ROS accumulation at 0.01 to 1 uM incubated for 8 to 24 hrs by BODIPY 581/591 C11 staining based flow cytometric analysis; assay type: functional; settings: dose 0.01-1 µM, time 8-24 hrs
HT-1080 [23] = assay: Downregulation of GPX4 expression in erastin-induced human HT-1080 cell ferroptosis model at 1 uM after 10 hrs by Western blot analysis; assay type: functional
[24] = target: T2, Alpha-1B adrenergic receptor (Homo sapiens) (UniProt P35368); assay: Antagonist activity at ADRA1B (unknown origin) by FLIPR assay
T2 sequence (whole entry): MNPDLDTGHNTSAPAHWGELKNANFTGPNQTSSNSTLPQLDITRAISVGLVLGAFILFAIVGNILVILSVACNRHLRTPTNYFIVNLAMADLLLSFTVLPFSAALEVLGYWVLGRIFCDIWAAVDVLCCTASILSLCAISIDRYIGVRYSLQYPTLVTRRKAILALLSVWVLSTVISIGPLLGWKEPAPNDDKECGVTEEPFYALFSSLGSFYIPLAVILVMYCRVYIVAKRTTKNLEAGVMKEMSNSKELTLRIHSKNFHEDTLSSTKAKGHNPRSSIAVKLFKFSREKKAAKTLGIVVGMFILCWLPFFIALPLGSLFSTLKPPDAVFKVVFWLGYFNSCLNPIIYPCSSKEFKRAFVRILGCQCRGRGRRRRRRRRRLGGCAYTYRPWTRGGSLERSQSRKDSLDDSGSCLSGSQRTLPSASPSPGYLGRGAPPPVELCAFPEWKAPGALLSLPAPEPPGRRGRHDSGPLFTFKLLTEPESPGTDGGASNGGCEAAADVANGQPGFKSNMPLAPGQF

[25] = Metal chelating activity assessed as iron chelation

## CC(c1ccc(N2CCN(C)CC2)cc1)c1ccc2c(c1)Nc1ccccc1S2 (configuration not stated)
Rattus norvegicus [1]
  Activity: Active
HT-1080 [2]
  inhibition: inactive
[3]
  Activity: inactive
Rattus norvegicus [4]
  Activity: Active
[5]
  Activity: inactive
[6]
  Activity: inactive
Rattus norvegicus [7]
  Activity: Active
HT-1080 [8]
  Activity: inactive
Calu-1 [9]
  Activity: Active
HT-1080 [10]
  Activity: Active
[11]
  IC50: > 10000 nM
HT-1080 [12]
  inhibition: inactive
HT-1080 [13]
  Activity: inactive
Calu-1 [14]
  EC50: 1.88 nM
[15]
  Activity: inactive
HT-1080 [16]
  Activity: Active
Calu-1 [17]
  Activity: Active
MDA-MB-231
  EC50: 0.424 nM
HT-1080 [18]
  EC50: 0.5 nM
Rattus norvegicus [19]
  Activity: Active
BXPC-3
  EC50: 2.92 nM
HT-1080 [20]
  Activity: inactive
HT-1080 [21]
  inhibition: inactive
HT-1080 [22]
  Activity: Active
HT-1080 [23]
  Activity: inactive
[24]
  Activity: inactive
[25]
  Activity: inactive

— ChEMBL document CHEMBL4732064, “Structure-activity relationship studies of phenothiazine derivatives as a new class of ferroptosis inhibitors together with the therapeutic effect in an ischemic stroke model” (Eur J Med Chem, 2021)
